Measurements from patent publication US9814711B2, “Antitubercular composition comprising rifampicin, isoniazid, ethambutol and pyrazinamide and its process of preparation” (priority 2013, dated 2017).
Where a name gives a salt, the structure may show the parent alone.

Tests used:
[1] = Stability: active ingredient content of coated tablets, initial and after aging at 40° C. and 75% relative humidity; format: physicochemical
[2] = Dissolution time test (pH 6.8 phosphate buffer, 900 mL, paddle 100 rpm, HPLC); format: physicochemical; details: for % of dissolved actives at 45 min after beginning the Dissolution time test: pH 6.8 phosphate buffer 900 mL paddle 100 rpm
Description: The dissolution time of the actives can be measured by introducing one tablet (weight 1090 mg) in 900 mL of water at 37° C. buffered to pH 6.8 with a phosphate buffer wherein the medium is mixed with a paddle at 100 rpm. The phosphate buffer is prepared by dissolving 7 g of anhydrous dibasic sodium phosphate in 5 L of water, and adjusting with phosphoric acid to a pH of 6.8. The percentage of the actives dissolved at a given time can be measured by high performance liquid chromatography (HPLC).

[3] = coated tablet of Example 1, aging 1 month at 40° C. and 75% relative humidity
[4] = coated tablet of Example 1, aging 2 months at 40° C. and 75% relative humidity
[5] = coated tablet of Example 1, initial
[6] = coated tablet of Example 1, aged 1 month at 40° C. and 75% relative humidity
[7] = coated tablet of Example 1, aged 2 months at 40° C. and 75% relative humidity

Row | Structure (SMILES) | percentage of active ingredient measured relative to the target quantity [1, 3] | percentage of active ingredient measured relative to the target quantity [1, 4] | percentage of active ingredient measured relative to the target quantity [1, 5] | % of dissolved actives at 45 min after beginning the Dissolution time test [2, 6] | % of dissolved actives at 45 min after beginning the Dissolution time test [2, 7] | % of dissolved actives at 45 min after beginning the Dissolution time test [2, 5] | cumulative percentage of active released ([2]; tablet of Example 1, 5 min) | cumulative percentage of active released ([2]; tablet of Example 1, 10 min) | cumulative percentage of active released ([2]; tablet of Example 1, 15 min) | cumulative percentage of active released ([2]; tablet of Example 1, 20 min) | cumulative percentage of active released ([2]; tablet of Example 1, 30 min) | cumulative percentage of active released ([2]; tablet of Example 1, 45 min) | cumulative percentage of active released ([2]; tablet of Example 1, 60 min)
1 | CC[C@@H](CO)NCCN[C@@H](CC)CO [Ethambutol HCl, Ethambutol Hydrochloride] | 100.3% | 101.4% | 100.6% | 100% | 99% | 100% | 84 | 99 | 99 | 99 | 99 | 99 | 99
2 | NNC(=O)c1ccncc1 [Isoniazid] | 97.8% | 98.20% | 100.0% | 98% | 100% | 98% | 86 | 99 | 100 | 100 | 100 | 100 | 100
3 | NC(=O)c1cnccn1 [Pyrazinamide] | 101.2% | 100.5% | 101.3% | 102% | 102% | 102% | 90 | 101 | 102 | 102 | 102 | 102 | 102
